# Reference: patent publication US20160046618A1, “Cyclopropyl Fused Thiazin-2-Amine Compounds as Beta-Secretase Inhibitors and Methods of Use” (AMGEN INC., priority 2014, published 2016)
# Key:
# [1] = tested on: Aβ40 in conditioned medium of cells stably expressing Amyloid Precursor Protein (APP); experiment: In vitro BACE-1 cell-based assay (Aβ40 sandwich ELISA); conditions: read-out: IC50 IP (μM) BACE1 cell
# Outline: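 Read-out: time-resolved fluorescence (Streptavidin-Europium) of Aβ40 captured by pAb40 and detected with biotinylated 6E10 from supernatants of APP-stable cells. Cells were exposed to compound for 24 h, 10-point dose response, top dose 100 μM or 10 μM, 0.1% DMSO. IC50 fitted to percent of control.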
# Recombinant Cat D = Recombinant Cat D (Homo sapiens (Human), UniProt P07339); experiment: In vitro enzymatic Cathepsin D (Cat D) FRET assay; type: biochemical; conditions: read-out: IC50 IP (μM) CatD
# Outline: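 Assay pH is 3.5 (0.05 M citrate, 5 mM CHAPS, 10% DMSO final) with Cat D from CHO cells. A 20 nM quenched peptide substrate is cleaved over one hour; the reaction is ended with Tris and read by fluorescence (ex 500, em 580 nm).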
# human recombinant BACE2 = human recombinant BACE2 (Homo sapiens (Human), UniProt Q9Y5Z0); experiment: In vitro enzymatic BACE2 FRET assay; type: biochemical; conditions: read-out: IC50 IP (μM) BACE2 enzyme
# Outline: (§1)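 Read-out: dequenched fluorescence, excitation 488 nm, emission 590 nm, after proteolysis of a quenched peptide spanning the BACE cleavage site. Substrate at 50 nM, 1 h incubation, termination by Tris addition to neutral pH.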
# human recombinant BACE1 = human recombinant BACE1 (Homo sapiens (Human), UniProt P56817); experiment: In vitro enzymatic BACE1 FRET assay; type: biochemical; conditions: read-out: IC50 IP (μM) BACE1 enzyme
# Outline: as §1
# Chain of human recombinant BACE2 (Q9Y5Z0 63-518): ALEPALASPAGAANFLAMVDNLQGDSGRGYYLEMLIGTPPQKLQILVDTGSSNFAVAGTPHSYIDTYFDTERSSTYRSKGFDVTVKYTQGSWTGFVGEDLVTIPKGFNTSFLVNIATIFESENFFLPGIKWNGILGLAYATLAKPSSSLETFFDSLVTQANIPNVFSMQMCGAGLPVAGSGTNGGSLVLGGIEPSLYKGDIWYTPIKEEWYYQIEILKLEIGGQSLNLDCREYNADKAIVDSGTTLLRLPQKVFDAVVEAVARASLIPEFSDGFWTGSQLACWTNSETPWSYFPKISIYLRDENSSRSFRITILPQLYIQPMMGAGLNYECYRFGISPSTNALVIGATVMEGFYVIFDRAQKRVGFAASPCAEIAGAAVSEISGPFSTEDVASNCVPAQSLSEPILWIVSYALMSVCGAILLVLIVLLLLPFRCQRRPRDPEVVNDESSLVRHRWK
# Chain of human recombinant BACE1 (P56817 46-501): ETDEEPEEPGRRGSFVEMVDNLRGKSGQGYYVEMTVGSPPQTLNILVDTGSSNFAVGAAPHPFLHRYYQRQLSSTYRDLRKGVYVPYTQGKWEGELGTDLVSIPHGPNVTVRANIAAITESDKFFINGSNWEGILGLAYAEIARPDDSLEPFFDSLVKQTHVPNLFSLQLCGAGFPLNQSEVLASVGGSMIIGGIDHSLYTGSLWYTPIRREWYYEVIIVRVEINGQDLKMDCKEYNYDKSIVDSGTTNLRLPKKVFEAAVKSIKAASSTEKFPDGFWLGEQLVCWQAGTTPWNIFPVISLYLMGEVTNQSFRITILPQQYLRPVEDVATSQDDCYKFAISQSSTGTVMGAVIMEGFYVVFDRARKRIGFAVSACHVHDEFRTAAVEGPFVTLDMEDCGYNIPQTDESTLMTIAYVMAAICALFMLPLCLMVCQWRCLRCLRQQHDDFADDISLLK
# Chain of Recombinant Cat D (P07339 65-412): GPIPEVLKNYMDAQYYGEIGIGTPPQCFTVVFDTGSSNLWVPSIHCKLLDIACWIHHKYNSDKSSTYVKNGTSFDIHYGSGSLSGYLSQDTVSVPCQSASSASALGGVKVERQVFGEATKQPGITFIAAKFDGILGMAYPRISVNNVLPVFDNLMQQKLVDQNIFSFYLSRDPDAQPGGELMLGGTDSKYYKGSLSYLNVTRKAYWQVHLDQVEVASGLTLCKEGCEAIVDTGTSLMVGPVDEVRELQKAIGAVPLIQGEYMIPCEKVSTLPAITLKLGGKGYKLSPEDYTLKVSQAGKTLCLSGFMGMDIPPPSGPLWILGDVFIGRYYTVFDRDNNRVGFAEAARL
Structure (SMILES),IC50 [1],IC50 (Recombinant Cat D),IC50 (human recombinant BACE2),IC50 (human recombinant BACE1)
"COC[C@H](C)Oc1cnc(C(=O)Nc2ccc(F)c([C@@]3(C)N=C(N)S[C@@]4(COC)C[C@H]43)c2)cn1 [Example 970, N-(3-((1S,5S,6S)-3-amino-1-(methoxymethyl)-5-methyl-2-thia-4-azabicyclo[4.1.0]hept-3-en-5-yl)-4-fluorophenyl)-5-((1S)-2-methoxy-1-methylethoxy)-2-pyrazinecarboxamide]",0.021 µM,> 400 µM,0.333 µM,0.0085 µM
"C[C@]1(c2cc(NC(=O)c3cnc(OCC(F)(F)F)cn3)ccc2F)N=C(N)S[C@@]2(C(=O)NCC(F)(F)F)C[C@H]21 [Example 972, (1S,5S,6S)-3-amino-5-(2-fluoro-5-(5-(2,2,2-trifluoroethoxy)pyrazine-2-carboxamido)phenyl)-5-methyl-N-(2,2,2-trifluoroethyl)-2-thia-4-azabicyclo[4.1.0]hept-3-ene-1-carboxamide]",0.00455 µM,138 µM,0.0794 µM,0.000454 µM
"CC(C)[C@H](C)NC(=O)[C@]12C[C@H]1[C@@](C)(c1cc(NC(=O)c3cnc(OCC(F)(F)F)cn3)ccc1F)N=C(N)S2 [Example 974, (1S,5S,6S)-3-amino-5-(2-fluoro-5-(5-(2,2,2-trifluoroethoxy)pyrazine-2-carboxamido)phenyl)-5-methyl-N—((S)-3-methylbutan-2-yl)-2-thia-4-azabicyclo[4.1.0]hept-3-ene-1-carboxamide]",0.00257 µM,14.5 µM,0.014 µM,0.00132 µM
"C#CCOc1cnc(C(=O)Nc2cc(F)c(F)c([C@@]3(C)N=C(N)S[C@@]4(C(=O)OC)C[C@H]43)c2)cn1 [Example 975, methyl (1S,5S,6S)-3-amino-5-(2,3-difluoro-5-(((5-(2-propyn-1-yloxy)-2-pyrazinyl)carbonyl)amino)phenyl)-5-methyl-2-thia-4-azabicyclo[4.1.0]hept-3-ene-1-carboxylate]",0.00551 µM,212 µM,0.0562 µM,0.000565 µM
"CCNC(=O)[C@]12C[C@H]1[C@@](C)(c1cc(NC(=O)c3cnc(OCC(F)(F)F)cn3)ccc1F)N=C(N)S2 [Example 977, (1S,5S,6S)-3-amino-N-ethyl-5-(2-fluoro-5-(5-(2,2,2-trifluoroethoxy)pyrazine-2-carboxamido)phenyl)-5-methyl-2-thia-4-azabicyclo[4.1.0]hept-3-ene-1-carboxamide]",0.00439 µM,577 µM,0.0876 µM,0.000782 µM
"C#CCOc1cnc(C(=O)Nc2cc(F)c(F)c([C@@]3(C)N=C(N)S[C@@]4(CNC(=O)OC(C)(C)C)C[C@H]43)c2)cn1 [Example 980, tert-butyl(((1S,5S,6S)-3-amino-5-(2,3-difluoro-5-(5-(prop-2-yn-1-yloxy)pyrazine-2-carboxamido)phenyl)-5-methyl-2-thia-4-azabicyclo[4.1.0]hept-3-en-1-yl)methyl)carbamate]",0.000747 µM,19.8 µM,0.013 µM,0.000455 µM
"C#CCOc1cnc(C(=O)Nc2cc(F)c(F)c([C@@]3(C)N=C(N)S[C@@]4(CN)C[C@H]43)c2)cn1 [Example 981, N-(3-((1S,5S,6S)-3-amino-1-(aminomethyl)-5-methyl-2-thia-4-azabicyclo[4.1.0]hept-3-en-5-yl)-4,5-difluorophenyl)-5-(prop-2-yn-1-yloxy)pyrazine-2-carboxamide]",0.00074 µM,106 µM,0.0575 µM,0.00315 µM
"C[C@]1(c2cc(NC(=O)c3cnc(OCC(F)(F)F)cn3)ccc2F)N=C(N)S[C@@]2(C(=O)NC3CC3(F)F)C[C@H]21 (stereo partly drawn) [Example 982, (1S,5S,6S)-3-amino-N-(2,2-difluorocyclopropyl)-5-(2-fluoro-5-(5-(2,2,2-trifluoroethoxy)pyrazine-2-carboxamido)phenyl)-5-methyl-2-thia-4-azabicyclo[4.1.0]hept-3-ene-1-carboxamide]",0.00329 µM,175 µM,0.032 µM,0.000679 µM
"CON(C)C(=O)[C@]12C[C@H]1[C@@](C)(c1cc(NC(=O)c3cnc(OCC(F)(F)F)cn3)ccc1F)N=C(N)S2 [Example 984, (1S,5S,6S)-3-amino-5-(2-fluoro-5-(5-(2,2,2-trifluoroethoxy)pyrazine-2-carboxamido)phenyl)-N-methoxy-N,5-dimethyl-2-thia-4-azabicyclo[4.1.0]hept-3-ene-1-carboxamide]",0.00125 µM,1110 µM,0.0217 µM,0.000858 µM

# The next lines start with the values.
IC50 [1],IC50 (Recombinant Cat D),IC50 (human recombinant BACE2),IC50 (human recombinant BACE1),Structure (SMILES)
0.000539 µM,269 µM,0.0149 µM,0.00011 µM,"C#C[C@H](C)Oc1cnc(C(=O)Nc2cc(F)c(F)c([C@@]3(C)N=C(N)S[C@@]4(C(=O)NC)C[C@H]43)c2)cn1 [Example 967, (1S,5S,6S)-3-amino-5-(2,3-difluoro-5-(((5-(((1S)-1-methyl-2-propyn-1-yl)oxy)-2-pyrazinyl)carbonyl)amino)phenyl)-N,5-dimethyl-2-thia-4-azabicyclo[4.1.0]hept-3-ene-1-carboxamide]"
0.0185 µM,611 µM,0.38 µM,0.00522 µM,"COC[C@H](C)Oc1cnc(C(=O)Nc2ccc(F)c([C@@]3(C)N=C(N)S[C@@]4(C(F)F)C[C@@H]34)c2)cn1 [Example 971, N-(3-((1S,5S,6S)-3-amino-1-(difluoromethyl)-5-methyl-2-thia-4-azabicyclo[4.1.0]hept-3-en-5-yl)-4-fluorophenyl)-5-((1S)-2-methoxy-1-methylethoxy)-2-pyrazinecarboxamide]"
0.00192 µM,1570 µM,0.0476 µM,0.000404 µM,"CNC(=O)[C@]12C[C@H]1[C@@](C)(c1cc(NC(=O)c3cnc(OCC(F)(F)F)cn3)ccc1F)N=C(N)S2 [Example 973, (1S,5S,6S)-3-amino-5-(2-fluoro-5-(5-(2,2,2-trifluoroethoxy)pyrazine-2-carboxamido)phenyl)-N,5-dimethyl-2-thia-4-azabicyclo[4.1.0]hept-3-ene-1-carboxamide]"
0.000648 µM,> 400 µM,0.0195 µM,0.000344 µM,"C#C[C@H](C)Oc1cnc(C(=O)Nc2ccc(F)c([C@@]3(C)N=C(N)S[C@@]4(C(=O)NC)C[C@H]43)c2)cn1 [Example 978, (1S,5S,6S)-3-amino-5-(5-(5-((S)-but-3-yn-2-yloxy)pyrazine-2-carboxamido)-2-fluorophenyl)-N,5-dimethyl-2-thia-4-azabicyclo[4.1.0]hept-3-ene-1-carboxamide]"
0.000859 µM,> 400 µM,0.0201 µM,0.000315 µM,"C#CCOc1cnc2c(Nc3ccc(F)c([C@@]4(C)N=C(N)S[C@@]5(C(=O)NC)C[C@H]54)c3)nccc2n1 [Example 979, (1S,5S,6S)-3-amino-5-(2-fluoro-5-((2-(2-propyn-1-yloxy)pyrido[3,4-b]pyrazin-5-yl)amino)phenyl)-N,5-dimethyl-2-thia-4-azabicyclo[4.1.0]hept-3-ene-1-carboxamide]"
0.00736 µM,172 µM,0.174 µM,0.00151 µM,"CC(C)(CF)NC(=O)[C@]12C[C@H]1[C@@](C)(c1cc(NC(=O)c3cnc(OCC(F)(F)F)cn3)ccc1F)N=C(N)S2 [Example 983, (1S,5S,6S)-3-amino-N-(1-fluoro-2-methylpropan-2-yl)-5-(2-fluoro-5-(5-(2,2,2-trifluoroethoxy)pyrazine-2-carboxamido)phenyl)-5-methyl-2-thia-4-azabicyclo[4.1.0]hept-3-ene-1-carboxamide]"
